Source: PubChem BioAssay (NCI)
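96-well plates; 48 h exposure; 5 concentrations. Endpoints by linear interpolation between flanking doses. Not reached: highest tested concentration assigned. TGI: total growth inhibition.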

Experiments:
Experiment in all cases: NCI tumour cell line growth inhibition, 48 h
786-0 renal = tested on: 786-0 renal
A498 renal = tested on: A498 renal
A549 NSCLC = tested on: A549 NSCLC
ACHN renal = tested on: ACHN renal
CAKI-1 renal = tested on: CAKI-1 renal
CCRF-CEM leukemia = tested on: CCRF-CEM leukemia
DLD-1 colon = tested on: DLD-1 colon
DMS 114 small cell lung = tested on: DMS 114 small cell lung
DMS 273 small cell lung = tested on: DMS 273 small cell lung
EKVX NSCLC = tested on: EKVX NSCLC
HCC-2998 colon = tested on: HCC-2998 colon
HCT-116 colon = tested on: HCT-116 colon
HCT-15 colon = tested on: HCT-15 colon
HL-60(TB) leukemia = tested on: HL-60(TB) leukemia
HOP-62 NSCLC = tested on: HOP-62 NSCLC
IGROV1 ovarian = tested on: IGROV1 ovarian
K-562 leukemia = tested on: K-562 leukemia
KM12 colon = tested on: KM12 colon
KM20L2 colon = tested on: KM20L2 colon
LXFL 529 NSCLC = tested on: LXFL 529 NSCLC
M14 melanoma = tested on: M14 melanoma
M19-MEL melanoma = tested on: M19-MEL melanoma
MALME-3M melanoma = tested on: MALME-3M melanoma
MOLT-4 leukemia = tested on: MOLT-4 leukemia
NCI-H226 lung = tested on: NCI-H226 lung
NCI-H23 lung = tested on: NCI-H23 lung
NCI-H460 lung = tested on: NCI-H460 lung
OVCAR-3 ovarian = tested on: OVCAR-3 ovarian
OVCAR-4 ovarian = tested on: OVCAR-4 ovarian
OVCAR-5 ovarian = tested on: OVCAR-5 ovarian
OVCAR-8 ovarian = tested on: OVCAR-8 ovarian
RPMI-8226 leukemia = tested on: RPMI-8226 leukemia
RXF 393 renal = tested on: RXF 393 renal
RXF-631 renal = tested on: RXF-631 renal
SF-539 CNS = tested on: SF-539 CNS
SK-MEL-2 melanoma = tested on: SK-MEL-2 melanoma
SK-MEL-28 melanoma = tested on: SK-MEL-28 melanoma
SK-MEL-5 melanoma = tested on: SK-MEL-5 melanoma
SK-OV-3 ovarian = tested on: SK-OV-3 ovarian
SN12C renal = tested on: SN12C renal
SNB-75 CNS = tested on: SNB-75 CNS
SNB-78 CNS = tested on: SNB-78 CNS
SW-620 colon = tested on: SW-620 colon
TK-10 renal = tested on: TK-10 renal
U251 CNS = tested on: U251 CNS
UACC-257 melanoma = tested on: UACC-257 melanoma
UACC-62 melanoma = tested on: UACC-62 melanoma
UO-31 renal = tested on: UO-31 renal
COLO 205 colon = tested on: COLO 205 colon
HOP-18 NSCLC = tested on: HOP-18 NSCLC
HOP-92 NSCLC = tested on: HOP-92 NSCLC
HT29 colon = tested on: HT29 colon
LOX IMVI melanoma = tested on: LOX IMVI melanoma
NCI-H522 lung = tested on: NCI-H522 lung
SF-268 CNS = tested on: SF-268 CNS
SF-295 CNS = tested on: SF-295 CNS
SNB-19 CNS = tested on: SNB-19 CNS
SR leukemia = tested on: SR leukemia
XF 498 CNS = tested on: XF 498 CNS

OCc1c[te]c(-c2ccccc2)c1 was tested, and the TGI (786-0 renal) was > 100 µM, the TGI (A498 renal) was > 100 µM and the TGI (A549 NSCLC) was > 100 µM. The TGI (ACHN renal) was > 100 µM, the TGI (CAKI-1 renal) was > 100 µM and the TGI (CCRF-CEM leukemia) was > 100 µM. The TGI (DLD-1 colon) was > 100 µM, the TGI (DMS 114 small cell lung) was 91.7 µM and the TGI (DMS 273 small cell lung) was > 100 µM. For the same compound, the TGI (EKVX NSCLC) was > 100 µM, the TGI (HCC-2998 colon) was > 100 µM and the TGI (HCT-116 colon) was 33.3 µM. The TGI (HCT-15 colon) was > 100 µM, the TGI (HL-60(TB) leukemia) was 45.1 µM and the TGI (HOP-62 NSCLC) was > 100 µM. For the same compound, the TGI (IGROV1 ovarian) was > 100 µM, the TGI (K-562 leukemia) was > 100 µM and the TGI (KM12 colon) was > 100 µM. For the same compound, the TGI (KM20L2 colon) was > 100 µM, the TGI (LXFL 529 NSCLC) was > 100 µM and the TGI (M14 melanoma) was > 100 µM. For the same compound, the TGI (M19-MEL melanoma) was > 100 µM, the TGI (MALME-3M melanoma) was > 100 µM and the TGI (MOLT-4 leukemia) was > 100 µM. For the same compound, the TGI (NCI-H226 lung) was 85.1 µM, the TGI (NCI-H23 lung) was 62.8 µM and the TGI (NCI-H460 lung) was > 100 µM. For the same compound, the TGI (OVCAR-3 ovarian) was 30.2 µM, the TGI (OVCAR-4 ovarian) was > 100 µM and the TGI (OVCAR-5 ovarian) was > 100 µM. The TGI (OVCAR-8 ovarian) was > 100 µM, the TGI (RPMI-8226 leukemia) was 86.8 µM and the TGI (RXF 393 renal) was > 100 µM. For the same compound, the TGI (RXF-631 renal) was > 100 µM, the TGI (SF-539 CNS) was 78.3 µM and the TGI (SK-MEL-2 melanoma) was 85.5 µM. For the same compound, the TGI (SK-MEL-28 melanoma) was > 100 µM, the TGI (SK-MEL-5 melanoma) was > 100 µM and the TGI (SK-OV-3 ovarian) was > 100 µM. The TGI (SN12C renal) was 78.7 µM, the TGI (SNB-75 CNS) was > 100 µM and the TGI (SNB-78 CNS) was > 100 µM. The TGI (SW-620 colon) was > 100 µM, the TGI (TK-10 renal) was > 100 µM and the TGI (U251 CNS) was > 100 µM. For the same compound, the TGI (UACC-257 melanoma) was > 100 µM, the TGI (UACC-62 melanoma) was > 100 µM and the TGI (UO-31 renal) was 79.4 µM.

NN1C(=O)C(CCO)S/C1=N/N=C1/SC(CCO)C(=O)N1N (centres undefined) was tested, and the TGI (786-0 renal) was > 100 µM, the TGI (A498 renal) was > 100 µM and the TGI (A549 NSCLC) was > 100 µM. The TGI (ACHN renal) was > 100 µM, the TGI (CAKI-1 renal) was > 100 µM and the TGI (CCRF-CEM leukemia) was > 100 µM. For the same compound, the TGI (COLO 205 colon) was > 100 µM, the TGI (DLD-1 colon) was > 100 µM and the TGI (DMS 114 small cell lung) was > 100 µM. For the same compound, the TGI (EKVX NSCLC) was > 100 µM, the TGI (HCC-2998 colon) was > 100 µM and the TGI (HCT-116 colon) was > 100 µM. The TGI (HCT-15 colon) was > 100 µM, the TGI (HL-60(TB) leukemia) was > 100 µM and the TGI (HOP-18 NSCLC) was > 100 µM. The TGI (HOP-62 NSCLC) was > 100 µM, the TGI (HOP-92 NSCLC) was > 100 µM and the TGI (HT29 colon) was > 100 µM. For the same compound, the TGI (IGROV1 ovarian) was > 100 µM, the TGI (K-562 leukemia) was > 100 µM and the TGI (KM12 colon) was > 100 µM. The TGI (KM20L2 colon) was > 100 µM, the TGI (LOX IMVI melanoma) was > 100 µM and the TGI (LXFL 529 NSCLC) was > 100 µM. The TGI (M14 melanoma) was > 100 µM, the TGI (M19-MEL melanoma) was > 100 µM and the TGI (MALME-3M melanoma) was > 100 µM. The TGI (MOLT-4 leukemia) was > 100 µM, the TGI (NCI-H226 lung) was > 100 µM and the TGI (NCI-H23 lung) was > 100 µM. For the same compound, the TGI (NCI-H460 lung) was > 100 µM, the TGI (NCI-H522 lung) was > 100 µM and the TGI (OVCAR-3 ovarian) was > 100 µM. For the same compound, the TGI (OVCAR-4 ovarian) was > 100 µM, the TGI (OVCAR-5 ovarian) was > 100 µM and the TGI (OVCAR-8 ovarian) was > 100 µM. The TGI (RPMI-8226 leukemia) was > 100 µM, the TGI (RXF 393 renal) was > 100 µM and the TGI (SF-268 CNS) was > 100 µM. The TGI (SF-295 CNS) was > 100 µM, the TGI (SF-539 CNS) was > 100 µM and the TGI (SK-MEL-2 melanoma) was > 100 µM. For the same compound, the TGI (SK-MEL-28 melanoma) was > 100 µM, the TGI (SK-MEL-5 melanoma) was > 100 µM and the TGI (SK-OV-3 ovarian) was > 100 µM. For the same compound, the TGI (SN12C renal) was > 100 µM, the TGI (SNB-19 CNS) was > 100 µM and the TGI (SNB-75 CNS) was > 100 µM. For the same compound, the TGI (SNB-78 CNS) was > 100 µM, the TGI (SR leukemia) was > 100 µM and the TGI (SW-620 colon) was > 100 µM. The TGI (U251 CNS) was > 100 µM, the TGI (UACC-257 melanoma) was > 100 µM and the TGI (UACC-62 melanoma) was > 100 µM. The TGI (UO-31 renal) was > 100 µM and the TGI (XF 498 CNS) was > 100 µM.
